What was measured:
[1] = target: T1, Peroxisome proliferator-activated receptor gamma (Homo sapiens, UniProt P37231); assay: Agonist activity at human PPARgamma ligand binding domain expressed in monkey COS7 cells cotransfected with Gal4 by luciferase reporter gene assay
T1 sequence (P37231 whole entry): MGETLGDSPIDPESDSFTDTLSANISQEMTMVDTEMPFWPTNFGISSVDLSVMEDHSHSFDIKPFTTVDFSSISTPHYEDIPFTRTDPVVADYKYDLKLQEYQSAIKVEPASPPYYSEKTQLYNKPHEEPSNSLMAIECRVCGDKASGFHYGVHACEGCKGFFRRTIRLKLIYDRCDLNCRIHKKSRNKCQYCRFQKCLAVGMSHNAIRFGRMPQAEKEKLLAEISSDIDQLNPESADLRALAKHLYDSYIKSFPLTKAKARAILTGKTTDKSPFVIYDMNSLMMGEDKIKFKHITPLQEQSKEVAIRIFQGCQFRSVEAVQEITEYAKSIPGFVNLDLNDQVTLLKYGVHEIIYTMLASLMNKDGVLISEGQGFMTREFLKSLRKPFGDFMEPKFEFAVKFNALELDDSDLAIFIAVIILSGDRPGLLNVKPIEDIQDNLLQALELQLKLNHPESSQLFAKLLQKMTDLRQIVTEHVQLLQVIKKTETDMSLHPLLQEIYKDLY

[2] = target: T2, Peroxisome proliferator-activated receptor delta (Homo sapiens, UniProt Q03181); assay: Agonist activity at human PPARdelta ligand binding domain expressed in monkey COS7 cells cotransfected with Gal4 by luciferase reporter gene assay
T2 sequence (Q03181 whole entry): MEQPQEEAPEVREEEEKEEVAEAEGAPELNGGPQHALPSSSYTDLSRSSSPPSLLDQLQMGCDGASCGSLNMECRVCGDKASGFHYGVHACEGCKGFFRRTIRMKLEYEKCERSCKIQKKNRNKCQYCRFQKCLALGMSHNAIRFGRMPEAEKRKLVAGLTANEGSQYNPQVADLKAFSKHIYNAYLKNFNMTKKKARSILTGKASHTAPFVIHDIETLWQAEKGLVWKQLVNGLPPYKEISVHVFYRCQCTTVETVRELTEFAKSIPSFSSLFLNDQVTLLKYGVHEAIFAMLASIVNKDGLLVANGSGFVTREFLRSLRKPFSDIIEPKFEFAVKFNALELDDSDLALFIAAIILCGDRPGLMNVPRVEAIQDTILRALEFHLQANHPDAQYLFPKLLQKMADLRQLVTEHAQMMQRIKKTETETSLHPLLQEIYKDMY

EC50 [1] [nM]	EC50 [2] [nM]	SMILES
19	54	COC(c1ccc(Br)cc1)C1CC1c1cc(C)c(OC(C)(C)C(=O)O)c(C)c1 (stereo not drawn)
39	–	CCOC(c1ccc(OC(F)(F)F)cc1)C1CC1c1cc(C)c(OC(C)(C)C(=O)O)c(C)c1 (stereo not drawn)
